For experiment [1], the system named is Fbn1^C1039G/+ mice. The experiment can be described thus: DON by osmotic minipumps in Marfan mouse model: aortic ultrasound, blood pressure, histology, immunoblot, qPCR, RNA-seq. The experiment is classed as in vivo. Here is the method:
(§1) Marfan mouse model which harbor a Fbn1^C1039G/+ allele (JAX stock #012885). Wild-type littermates were used as controls for Marfan mice. DON dissolved in saline, (Sigma-Aldrich), at 5 ng* kg^-1 min^-1 and ISRIB (MedChemExpress) at 10mg* kg^-1 min^-1 were infused using subcutaneous osmotic minipumps (Model 2004, Alzet Corp). NR (Novalix) was administered intraperitoneally at 1000 mg/kg in saline every other day. Mice were housed at the pathogen-free animal facility of the CNIC and CBMSO following the animal care standards of the institution. Animal procedures were approved by the CNIC and CBMSO-UAM Ethics Committee and the Madrid regional authorities and conformed with EU Directive 2010/63EU and Recommendation 2007/526/EC regarding the protection of animals used for experimental and other scientific purposes, enforced in Spanish law under Real Decreto 1201/2005.
(§2) Arterial blood pressure (BP) was measured by the mouse-tail cuff method using the automated BP-2000 Blood Pressure Analysis System (Visitech Systems, Apex, NC, USA). Mice were trained for BP measurements every day for five consecutive days. After training period, BP was measured one day before treatment to determine the baseline BP values in each mouse cohort. BP measurements were recorded in mice located in a tail-cuff restrainer over a warmed surface (37 °C). Fifteen consecutive systolic and diastolic BP measurements were made, and the last 10 readings per mouse were recorded and averaged. For in vivo ultrasound images, the aortic diameter was monitored in isoflurane-anesthetized mice (2% isoflurane) by highfrequency ultrasound with a VEVO 2100 echography device (VisualSonics, Toronto, Canada) at 30-micron resolution. Maximal internal aortic diameters were measured at diastole using VEVO 2100 software, version 1.5.0.
Aortas were extracted after perfusion with 5 ml saline solution, and the adventitia layer was discarded. Liquid nitrogen frozen tissue was homogenized using a cold-mortar and an automatic bead homogenizer (MagNA Lyzer, Roche). Total RNA was isolated with Trizol (Life Technologies). Total RNA (1 µg) was first digested with DNAse and reverse-transcribed with Maxima First Strand cDNA Synthesis Kit (ThermoFisher). For analysis of mtDNA levels, total DNA from cells and tissues was extracted with the SurePrep kit (Fisher Scientific) or Trizol respectively, according to the manufacture's guidelines. qPCR reactions were performed in triplicate with SYBR master mix (Promega), according to the manufacturer's guidelines. To examine probe specificity, we conducted a post-amplification melting-curve analysis. For each reaction, only one melting-temperature (Tm) peak was produced. The amount of target mRNA in samples was estimated by the 2-CT relative quantification method, using B2M, YWHAZ and PP1A for normalization. Fold ratios were calculated relative to mRNA expression levels from controls.
Aortas were extracted after perfusion of cold saline solution and the adventitia layer was discarded. Frozen tissue was homogenized, and total RNA was isolated with Trizol ([…]). RNA from Libraries were prepared according to the instructions of the Kit "NEBNext Ultra Directional RNA Library Prep kit for Illumina" (New England Biolabs), following the protocol "Poly(A) mRNA Magnetic Isolation Module". The input yield of total RNA to start the protocol was >300 ng quantified by an Agilent 2100 Bioanalyzer using a RNA 6000 nano LabChip kit. The obtained libraries were validated and quantified by an Agilent 2100 Bioanalyzer using a DNA7500 LabChip kit and an equimolecular pool of libraries was titrated by quantitative PCR using the "Kapa-SYBR FAST qPCR kit forLightCycler480" (Kapa BioSystems) and a reference standard for quantification. After processing on the Illumina HiSeq 2500 instrument, FastQ files were generated containing nucleotide data and quality scores for each position. RNA-seq reads were mapped to the Mus musculus reference genome, GRCm38.p6, using Hisat2 v2.1.0 software. […]
In general terms: A western blot detects proteins with antibodies after separation by electrophoresis.

The subject of experiment [2] is shFbn1-VSMCs. Briefly: DON incubation of Fbn1-silenced primary VSMCs: immunoblot, flow cytometry, qPCR. It counts as cell-based, murine. Here is the method: Isolation and culture of primary mouse VSMCs were previously described. Tissue was digested with a solution of collagenase and elastase (Worthington Biochem) until a single-cell suspension was obtained. All experiments with primary VSMCs were performed during passages 2-7. Lentiviral transduction was performed in VSMCs over 5 h at a multiplicity of infection = 3. The medium was then replaced with fresh DMEM supplemented with 10% FBS and cells were cultured for five more days, treated with NR for five more days and serum-starved for 16h. The HEK-293T (CRL-1573) and Jurkat (Clone E6-1, TIB-152) cell lines, required for high-titer lentivirus production and lentivirus titration respectively, were purchased from ATCC. The experiments were performed during passages 5-10. All cells tested negative for Mycoplasma.
The GFPT2 and GFP coding sequence was obtained from Origene. Lentiviruses expressing shRNA targeting murine Fbnl, and control shRNA were purchased from Sigma-Aldrich. Pseudo-typed lentiviruses were produced by transient calcium phosphate transfection of HEK-293T cells and concentrated from culture supernatant by ultracentrifugation (2 hours at 128,000xg; Ultraclear Tubes; SW28 rotor and Optima L-100 XP Ultracentrifuge; Beckman). Viruses were suspended in cold sterile PBS and titrated by transduction of Jurkat cells for 48h. Transduction efficiency (GFP-expressing cells and Puromycin resistant-cells) and cell death (propidium iodide staining) were quantified by flow cytometry.
Aortas were extracted after perfusion with 5 ml saline solution, and the adventitia layer was discarded. Liquid nitrogen frozen tissue was homogenized using a cold-mortar and an automatic bead homogenizer (MagNA Lyzer, Roche). Total RNA was isolated with Trizol (Life Technologies). […] The amount of target mRNA in samples was estimated by the 2-CT relative quantification method, using B2M, YWHAZ and PP1A for normalization. Fold ratios were calculated relative to mRNA expression levels from controls. […]

In experiment [3] the test system is Fbn1^C1039G/+ mice. The experiment can be described thus: Glucosamine in drinking water to fuel HBP, Marfan mouse model: aortic ultrasound, aortic histology. It counts as in vivo. Here is the method: (§3) Marfan mouse model which harbor a Fbn1^C1039G/+ allele (JAX stock #012885). Wild-type littermates were used as controls for Marfan mice. DON dissolved in saline, (Sigma-Aldrich), at 5 ng* kg^-1 min^-1 and ISRIB (MedChemExpress) at 10mg* kg^-1 min^-1 were infused using subcutaneous osmotic minipumps (Model 2004, Alzet Corp). NR (Novalix) was administered intraperitoneally at 1000 mg/kg in saline every other day. Mice were housed at the pathogen-free animal facility of the CNIC and CBMSO following the animal care standards of the institution. […]
as §2, with “Mice were trained for BP measurements every day for five consecutive days.” left out, “1.5.0. […]” for “1.5.0.”

Another experiment deals with Fbn1^+/+ mice. The experiment can be described thus: Glucosamine in drinking water to fuel HBP, wild-type mice: aortic ultrasound, tail-cuff blood pressure, aortic histology. It counts as in vivo, mouse. Here is the method: as §1, §2
After euthanization by CO2 inhalation, mice were perfused with saline. […] Elastic lamina breaks, defined as interruptions in the elastic fibers, were counted in the entire medial layer of three consecutive cross-sections per mouse, using 4-16 mice per experiment, and the mean number of breaks was calculated. […]

For experiment [4], the system named is shFbn1-VSMCs. The experiment can be described thus: ISRIB incubation of Fbn1-silenced primary VSMCs: qPCR. It counts as cell-based, murine. As to conditions: ISRIB incubation for 48h. Here is the method:
Isolation and culture of primary mouse VSMCs were previously described. Tissue was digested with a solution of collagenase and elastase (Worthington Biochem) until a single-cell suspension was obtained. All experiments with primary VSMCs were performed during passages 2-7. Lentiviral transduction was performed in VSMCs over 5 h at a multiplicity of infection = 3. The medium was then replaced with fresh DMEM supplemented with 10% FBS and cells were cultured for five more days, treated with NR for five more days and serum-starved for 16h. […]
The GFPT2 and GFP coding sequence was obtained from Origene. […] Transduction efficiency (GFP-expressing cells and Puromycin resistant-cells) and cell death (propidium iodide staining) were quantified by flow cytometry.
Aortas were extracted after perfusion with 5 ml saline solution, and the adventitia layer was discarded. […] The amount of target mRNA in samples was estimated by the 2-CT relative quantification method, using B2M, YWHAZ and PP1A for normalization. Fold ratios were calculated relative to mRNA expression levels from controls.
ISR is a decisive cell response pathway that controls translation and bases a protective response and drive a transcriptional program to maintain and to contribute to organismal fitness. […] First, the inventors evaluated the ISRIB (an ISR-inhibitor) in MFS in vitro. […]
(Real-time PCR tracks product formation cycle by cycle.)

Experiment [5] deals with Fbn1^C1039G/+ mice. The experiment can be described thus: ISRIB by osmotic minipumps in Marfan mouse model: aortic ultrasound, blood pressure. It counts as in vivo. The settings on record: 28 days, to normal levels. The method, then: as §3
as §2, with “Mice were trained for BP measurements every day for five consecutive days.” left out, “1.5.0. […]” for “1.5.0.”

Where [6] appears, read: 24-weeks Fbn1^C1039G/+ mice, DON by osmotic minipumps, after 7 days of treatment.
Where [7] appears, read: RNA-sequencing on aortas, same cohort as Fig. 3D.

The structures appear in SMILES notation.

With `[N-]=[N+]=CC(=O)CC[C@H](N)C(=O)O` [DON, 6-diazo-5-oxo-L-norleucine], in the experiment on Fbn1^C1039G/+ mice [1] (setting [6]), the Aortic dilation result is “completely normalized” and the blood pressure entry is “completely normalized”. For the same compound, in the experiment on Fbn1^C1039G/+ mice [1] (DON treatment for 28 days), the “O-GlcNac levels and WGA staining in aortic tissue” value is listed as “reduces”. For the same compound, the “ISR (p-PERK, p-eIF2α, ATF4 staining and protein levels; Atf4, Atf6, Tgfb2 mRNA) in aortas” value in the experiment with Fbn1^C1039G/+ mice [1] (MFS-mice, same cohort as Fig. 3D) is listed as “inhibited”. Further, in the experiment on Fbn1^C1039G/+ mice [1] (setting [7]), the “expression levels of genes related to ER-stress and ISR such as Atf4, Chop, Xbpl, Hsp90b1 and Atf4-dependent genes” value was “decreased”; the “expression of conventional MFS-affected genes (TGFβ pathway and ECM-related proteins such as Tgfb3, Cnn2, Serpine1, Thbs1, Pdgfa, Acan, Vcan Sdc4)” value was “decreased”. Further, the “histologic features of aortic degeneration in MFS, such as medial thickening, elastic fiber fragmentation, GAG and PG deposition” value in the experiment on Fbn1^C1039G/+ mice [1] (after 28 days of DON-treatment) is “restored”. For the same compound, in the experiment on Fbn1^C1039G/+ mice [1] (ingenuity analysis of aortic RNA-seq, DON treated mice, p-value 2,5710^-11), the “TGFB upstream regulator, activation Z-score” value is on record as -9,913. Moreover, in the experiment with shFbn1-VSMCs [2] (ShFbn1-VSMCs, DON for 48h), the “IRS signaling through Atf4, Atf6 protein and mRNA expression” value was “decreased”. Besides, in the experiment on shFbn1-VSMCs [2] (shFbn1-VSMCs, DON 10nM, 48h, immunoblot and flow cytometry), the O-GlcNac entry was “efficiently reduced”. The “mRNA levels of classical MFS genes such as Tgb1, Fgf2 growth factors, osteopontin (spp1) and colagen1 (Col1a1)” value in the experiment on shFbn1-VSMCs [2] (shFbn1-VSMCs, DON incubation) was “decreased”.
On to `N[C@H]1C(O)O[C@H](CO)[C@@H](O)[C@@H]1O` (stereo partly shown) [Glucosamine], for which the “aortic architecture such as elastin fiber fragmentation and amorphous matrix accumulation” value in the experiment on Fbn1^C1039G/+ mice [3] (after 28 days of treatment) was “worsen”. Besides, the aortic diameter result is listed as “increased” in the experiment with Fbn1^C1039G/+ mice [3] (glucosamine in drinking water (5%), compared with control Fbn1^C1039G/+ mice) and “significantly increased” with Fbn1^+/+ mice (glucosamine in drinking water (5%), 28 days, effect after 7 days of treatment). For the same compound, the “histological features of CMD” value in the experiment with Fbn1^+/+ mice (elastin fiber fragmentation and Alcian blue staining after 28 days of treatment) is listed as “reproduced”. In addition, the “systolic blood pressure (BP)” value in the experiment on Fbn1^+/+ mice (glucosamine in drinking water (5%), after 7 days of treatment) is given as “decreased”.
`O=C(COc1ccc(Cl)cc1)N[C@H]1CC[C@H](NC(=O)COc2ccc(Cl)cc2)CC1` [ISRIB]: the “Atf4, Atf6 mRNA levels” value with shFbn1-VSMCs [4] was “reduces”. In the experiment with Fbn1^C1039G/+ mice [5], the aortic diameter result is given as “decreases” and the blood pressure result is “decreases”.

(Values after patent EP4560029A1, “METHOD FOR THE DIAGNOSIS OF ANEURYSM, AND INHIBITORS FOR USE IN THE PREVENTION OR TREATMENT OF ANEURYSM” (Fundacion Instituto De Investigacion Sanitaria Fundacion …, priority 2023, dated 2025).)
